Experimental data published in US20040043084A1, “Method of enhancing biological activity of plant extracts” (priority 2002, published 2004).

What was measured:
[1] = system: skin; assay: Skin exfoliation via D-Squame discs and image analysis; type: in vivo, human; conditions: tested previously in a base, activity over the placebo, 1.0% active in formula
Excerpt: The subjects included in this study were 120 females between the ages of 21 and 65 years, all meeting the screening criteria of good health and not being pregnant or lactating. The subjects reported for testing without moisturizers or any other products on their hands and baseline measurements were taken. They were randomly assigned to one of the following eight treatment groups. They were given the product to take home and self-administer to their right hand only, twice a day in the morning after washing and in the evening at least 15 minutes before bedtime for four weeks. The left hand served as the untreated control site. The subjects were only allowed to use the test product and specifically log its use in a daily diary provided. At the end of two and four weeks the subjects returned for testing without applying the product for at least 12 hours and they were re-evaluated under the same conditions. Skin Exfoliation via D-Squame Discs Method and Image Analysis Four D-Squame discs were firmly and evenly pressed on the face and the back of each hand with a hand held uniform pressure device and removed by gently pulling away from the skin. The D-Squame discs were mounted on clear microscope slides and labeled according to panelist name and visit. Desquamation was evaluated from the D-Squame discs via the image analyzer. Skin evaluation was carried out before treatment, and after two and four weeks of treatment. The OPTIMA image analyzer was used to evaluate skin flakiness. The D-Squame samples containing the stratum corneocytes are placed under a camera on top of a light table and each image is imported into the image analyzer. The average Gray Value corresponding to the sample density is measured. The denser the sample the higher the Gray value difference. Skin exfoliation was evaluated by measuring the amount of flakes removed from the skin surface using D-Squame discs and analyzing them via the IA method. In this study several ferment combinations of N-Acetyl D-Glucosamine and Mannose 6-Phosphate vs. the placebo, the broth and the ferment as controls, for their effect on skin desquamation. […] Another series of tests were conducted as described above. The concentration of N-acetyl D-glucosamine and mannose 6-phosphate was reduced by 10 fold without compromising their activity. Table 4 below summarizes the actual active concentrations used with a brief description along with their activity.

[2] = system: UV induced peroxidation of lipids; assay: inhibition of UV induced peroxidation of lipids (liposomal assay, Pelle et al.); type: biochemical
Excerpt: Caffeine was subjected to bioconversion at concentration as indicated(w/v) in water or in a mixture of structured waters (I/S 60/40).
P. ulei is an equatorial plant known to have anti-inflammatory properties. A. purchyriminor is an equatorial plant containing inhibitors of PAF (Platelet Activating Factor). […] The untreated extracts at a concentration 1% each, are combined and diluted to 0.1% each and subjected to bioconversion.

SMILES: O=C[C@@H](O)[C@@H](O)[C@H](O)[C@H](O)COP(=O)(O)O [1% Mannose 6-Phosphate, Mannose 6-Phosphate]
- Decrease in Flakiness 2 wk [1]: 22%
- Decrease in Flakiness 4 wk [1]: 29%

SMILES: CC(=O)N[C@H]1C(O)O[C@H](CO)[C@@H](O)[C@@H]1O (stereo partly shown) [1% N-Acetyl Glucosamine, N-Acetyl Glucosamine]
- Decrease in Flakiness 2 wk [1]: 16%
- Decrease in Flakiness 4 wk [1]: 27%

SMILES: Cn1c(=O)c2c(ncn2C)n(C)c1=O [Caffeine Non bioconverted H2O, Caffeine]
- Inhibition of lipid peroxidation ([2]; Caffeine Concentration 0.05%): 30%
- Inhibition of lipid peroxidation ([2]; Caffeine Concentration 0.25%): 54%
- Inhibition of lipid peroxidation ([2]; Caffeine Concentration 0.5%): 66%

SMILES: Cn1c(=O)c2c(ncn2C)n(C)c1=O [Caffeine Non bioconverted I/S water, Caffeine]
- Inhibition of lipid peroxidation ([2]; Caffeine Concentration 0.05%): 24%
- Inhibition of lipid peroxidation ([2]; Caffeine Concentration 0.25%): 58%
- Inhibition of lipid peroxidation ([2]; Caffeine Concentration 0.5%): 66%

SMILES: Oc1ccc(C=Cc2cc(O)cc(O)c2)cc1 [Resveratrol Nonbioconverted, Resveratrol]
- Anti-oxidant activity ([2]; Concentration of Resveratrol in S water 0.05%): 1.8%
- Anti-oxidant activity ([2]; Concentration of Resveratrol in S water 0.25%): 8%
- Anti-oxidant activity ([2]; Concentration of Resveratrol in S water 0.5%): 39%
